≈ marks a conversion by molar mass, not a printed value.
Legend:
Format in all cases: functional
[1] = system: Mycobacterium tuberculosis; assay: Antibacterial activity against multidrug-resistant Mycobacterium tuberculosis assessed as inhibition of bacterial growth by microplate alamar blue assay
[2] = system: Mycobacterium tuberculosis; assay: Antibacterial activity against extensively drug-resistant Mycobacterium tuberculosis assessed as inhibition of bacterial growth by microplate alamar blue assay
[3] = system: Mycobacterium tuberculosis; assay: Antibacterial activity against multidrug-resistant Mycobacterium tuberculosis assessed as inhibition of bacterial growth
[4] = system: Mycobacterium tuberculosis; assay: Antibacterial activity against extensively drug-resistant Mycobacterium tuberculosis assessed as inhibition of bacterial growth
[5] = system: Mycobacterium tuberculosis; assay: Antibacterial activity against isoniazid-resistant Mycobacterium tuberculosis H37Rv assessed as inhibition of bacterial growth
[6] = system: Mycobacterium tuberculosis; assay: Antibacterial activity against streptomycin-resistant Mycobacterium tuberculosis H37Rv assessed as inhibition of bacterial growth
[7] = system: Mycobacterium tuberculosis; assay: Antibacterial activity against rifampicin-resistant Mycobacterium tuberculosis H37Rv assessed as inhibition of bacterial growth
[8] = system: Mycobacterium tuberculosis; assay: Antibacterial activity against ethambutol-resistant Mycobacterium tuberculosis H37Rv assessed as inhibition of bacterial growth
[9] = system: Mycobacterium tuberculosis; assay: Antibacterial activity against multidrug-resistant Mycobacterium tuberculosis clinical isolate CDCT-16 assessed as inhibition of bacterial growth
[10] = system: Mycobacterium tuberculosis; assay: Antibacterial activity against multidrug-resistant Mycobacterium tuberculosis clinical isolate CDCT-27 assessed as inhibition of bacterial growth
[11] = system: Mycobacterium tuberculosis; assay: Antibacterial activity against extensively drug-resistant Mycobacterium tuberculosis clinical isolate H37Rv assessed as inhibition of bacterial growth
[12] = system: Mycobacterium tuberculosis; assay: Antibacterial activity against multidrug-resistant Mycobacterium tuberculosis clinical isolate H37Rv assessed as inhibition of bacterial growth
[13] = system: Mycobacterium tuberculosis; assay: Antibacterial activity against isoniazid and rifampicin-resistant Mycobacterium tuberculosis T113/09 assessed as inhibition of bacterial growth

O=C(N/N=C1\C(=O)N(Cc2ccccc2)c2ccccc21)c1cnc2cc(Cl)ccc2c1O
MIC [1]: 0.24 µg/mL (≈ 0.525 µM) | MIC [2]: 1.95 µg/mL (≈ 4.27 µM)

COc1ccc(-c2nn(-c3ccc([N+](=O)[O-])cc3[N+](=O)[O-])c(N)c2C#N)cc1Oc1cccc(Br)c1C#N
MIC [3]: 1.95 µg/mL (≈ 3.38 µM) | MIC [4]: 3.9 µg/mL (≈ 6.77 µM)

COC(=O)c1cc(-c2ccc(OC)c(NC(=O)c3cc(-c4cccc(Cl)c4)nc4ccccc34)c2)on1
MIC [5]: 0.5 µg/mL (≈ 0.973 µM) | MIC [6]: 0.25 µg/mL (≈ 0.486 µM) | MIC [7]: 0.25 µg/mL (≈ 0.486 µM) | MIC [8]: 0.25 µg/mL (≈ 0.486 µM)

Cc1nc2cc(C(F)(F)F)ccc2n1-c1ncc(C(F)(F)F)s1
MIC [9]: 4.16 µM (≈ 1.46 µg/mL) | MIC [10]: 3.68 µM (≈ 1.29 µg/mL)

CC(C)/N=c1\cc2n(-c3ccccc3)c3ccccc3nc-2cc1Nc1ccc(N2CCN(C)CC2)c(F)c1
MIC [11]: 0.08 µg/mL (≈ 0.154 µM) | MIC [12]: 0.08 µg/mL (≈ 0.154 µM)

CCCCCCc1ccc(-c2cn(CC(=O)Cn3ccnc3[N+](=O)[O-])nn2)cc1
MIC [13]: 16.3 µM (≈ 6.46 µg/mL)

From ChEMBL document CHEMBL5365393, “Comprehensive coverage on anti-mycobacterial endeavour reported during 2022” (Eur J Med Chem, 2023)
